Measured values as given in ChEMBL document CHEMBL5303304, “EUbOPEN Chemogenomics Library - IncuCyte” (2023).

Experiments:
Format in all cases: toxicity, cell-based
HEK-293T = experiment: Incucyte cell viability with HEK293T; conditions: human, 10 µM, compound concentration 10 uM
Fibroblast = experiment: Incucyte cell viability with human fibroblast; conditions: 10 µM, compound concentration 10 uM
U2OS = experiment: Incucyte cell viability with U2OS; conditions: human, 10 µM, compound concentration 10 uM
Further: unitless GR value; below 1 slowed growth and below 0 cell loss.

Compound	Growth Rate (HEK-293T; 0 h, replicate number 1)	Growth Rate (HEK-293T; 0 h, replicate number 2)	Growth Rate (HEK-293T; 6 h, replicate number 2)	Growth Rate (HEK-293T; 12 h, replicate number 2)	Growth Rate (Fibroblast; 6 h, replicate number 1)	Growth Rate (U2OS; 0 h, replicate number 1)	Growth Rate (U2OS; 6 h, replicate number 1)	Growth Rate (U2OS; 6 h, replicate number 2)	Growth Rate (U2OS; 12 h, replicate number 1)	Growth Rate (U2OS; 12 h, replicate number 2)	Growth Rate (U2OS; 18 h, replicate number 1)	Growth Rate (U2OS; 24 h, replicate number 1)	Growth Rate (U2OS; 24 h, replicate number 2)	Growth Rate (HEK-293T; 6 h, replicate number 1)	Growth Rate (HEK-293T; 18 h, replicate number 2)	Growth Rate (Fibroblast; 0 h, replicate number 1)	Growth Rate (Fibroblast; 12 h, replicate number 2)	Growth Rate (Fibroblast; 18 h, replicate number 2)	Growth Rate (Fibroblast; 24 h, replicate number 2)	Growth Rate (U2OS; 18 h, replicate number 2)	also measured
O[C@]1(C(F)(F)F)CCCC[C@H]1Nc1ccc(F)cc1 [BAY-390]	-0.2	-0.23	0.5	0.95	0.19	-0.18	0.4	0.7	0.57	0.8	0.69	0.74	0.93								Growth Rate (Fibroblast; 0 h, replicate number 2): 0.2; Growth Rate (Fibroblast; 12 h, replicate number 1): 0.69; Growth Rate (Fibroblast; 18 h, replicate number 1): 0.78; Growth Rate (Fibroblast; 24 h, replicate number 1): 0.89; Growth Rate (U2OS; 0 h, replicate number 2): 0.62
Cc1c(N2CCNCC2)nc2ccc(Br)cc2c1C(=O)NC[C@H](CCC(=O)O)c1ccccc1Cl [BAY-403]		-0.32	0.8	0.81		-0.04	0.58	0.52	0.84		0.91	0.95		0.58	0.9	0.47	0.12	0.51	0.7		Growth Rate (HEK-293T; 18 h, replicate number 1): 0.76; Growth Rate (HEK-293T; 24 h, replicate number 1): 0.88; Growth Rate (Fibroblast; 0 h, replicate number 2): 0.9; Growth Rate (Fibroblast; 6 h, replicate number 2): 0.04
C[C@H](c1ccnc(Nc2nc3ccc(-c4cc(N(C)C)ncn4)cc3[nH]2)c1)N1CCN(C(=O)CC(F)(F)F)CC1 [BAY-985]	0.79	0.27	0.84	0.95	0.99	-0.23				0.94				0.4	0.94						Growth Rate (HEK-293T; 24 h, replicate number 2): 0.92; Growth Rate (Fibroblast; 0 h, replicate number 2): -1; Growth Rate (Fibroblast; 6 h, replicate number 2): -0.72; Growth Rate (Fibroblast; 12 h, replicate number 1): -1; Growth Rate (Fibroblast; 24 h, replicate number 1): 0.04
CCc1ccccc1C(=O)Nc1n[nH]c2c(C)c(F)c(C3C(C#N)=C(C)N(C)C(C)=C3C#N)cc12 [BAY-3827]	0.25	-0.99	0.11	0.34				0.51	0.96	0.66	0.9	0.9	0.57		0.66	0.47				0.62	Growth Rate (HEK-293T; 18 h, replicate number 1): 0.99; Growth Rate (HEK-293T; 24 h, replicate number 2): 0.71; Growth Rate (Fibroblast; 0 h, replicate number 2): -0.1
Cc1c(N2CCCC2)nc2ccc(Br)cc2c1C(=O)NC[C@H](CCC(=O)O)c1ccccc1Cl [BAY-6672]	-0.43			0.76	0.13	0.89	0.7	0.83	0.88	0.83	0.67	0.98	0.79		0.38			0.93	0.89	0.9	Growth Rate (HEK-293T; 24 h, replicate number 2): 0.44; Growth Rate (Fibroblast; 12 h, replicate number 1): 0.91; Growth Rate (Fibroblast; 18 h, replicate number 1): 0.97; Growth Rate (U2OS; 0 h, replicate number 2): 0.47
COc1cc(N[C@@H]2CCCC[C@]2(O)C(F)(F)F)ccc1F [BAY-9897]	0.51	0.5	0.88	0.88		-0.16	0.53		0.68		0.78	0.88	0.77							0.96	Growth Rate (Fibroblast; 12 h, replicate number 1): 0.82
Cl.N/C(=N\C(=O)c1nc(Cl)c(N)nc1N)NCc1ccccc1 [BENZAMIL HYDROCHLORIDE]			0.79	1	-0.25	0.13				0.99	1		0.94	0.83		0.69	0.56	0.68	0.74		Growth Rate (Fibroblast; 6 h, replicate number 2): -0.19
Cc1nnc2n1-c1sc3c(c1C(c1ccccc1Cl)=NC2)CC(C(=O)N1CCOCC1)C3 (centres undefined) [BEPAFANT]	0.58	0			0.34		0.52	0.91	0.9			0.89			0.99		0.71	0.79	0.92		Growth Rate (Fibroblast; 0 h, replicate number 2): -0.12; Growth Rate (Fibroblast; 18 h, replicate number 1): 0.77; Growth Rate (Fibroblast; 24 h, replicate number 1): 0.87
CNCc1ccc(-c2cc(-c3nc(-c4ccc(S(=O)(=O)C(C)C)cc4)cnc3N)on2)cc1 [BERZOSERTIB]		-0.99	-0.05	-0.51		-1			-0.83	0.45	0.15	0.31	0.19	-0.67	-0.38	-1	0.24	-0.14	-0.29	0.23	Growth Rate (HEK-293T; 12 h, replicate number 1): -0.49; Growth Rate (HEK-293T; 18 h, replicate number 1): -0.3; Growth Rate (HEK-293T; 24 h, replicate number 1): -0.24; Growth Rate (HEK-293T; 24 h, replicate number 2): -0.26; Growth Rate (Fibroblast; 18 h, replicate number 1): 0.32; Growth Rate (Fibroblast; 24 h, replicate number 1): -0.05
COC(=O)c1cc2c(cn1)[nH]c1ccccc12 [BETA-CCM]				0.64	0.4			0.6	0.72	0.95	0.85	0.98	0.97	0.67	0.78	0.3	0.65	0.98	0.9	1	Growth Rate (HEK-293T; 24 h, replicate number 2): 0.86; Growth Rate (Fibroblast; 6 h, replicate number 2): -0.82; Growth Rate (Fibroblast; 12 h, replicate number 1): -1; Growth Rate (U2OS; 0 h, replicate number 2): -0.72
CC(=O)N1CCC(c2ccc(C(=O)NC3=NCCN3)cc2C(F)(F)F)CC1 [BI 0054]		-0.32				0.95	0.82		0.97					0.29		-1	0.87	0.82	0.88	0.92	Growth Rate (HEK-293T; 12 h, replicate number 1): 0.6; Growth Rate (HEK-293T; 18 h, replicate number 1): 0.87; Growth Rate (HEK-293T; 24 h, replicate number 1): 0.81
